Experimental data taken from patent publication US20070218531A1, “Micro-Organism and a Method of Producing Paclitaxel by the Use of the Same” (HAIYI BIOTECH PTE LTD, priority 2004, published 2007).

Tested on: breast cancer cells
Test: In vitro bioactivity analysis: killing of cancer cells by minimal MTT method
Format: cell-based
Conditions: culture medium RPMI-1640 containing 2% calf serum, compared with paclitaxel standard sample
Excerpt: FIG. 10 is the chart of the effects of paclitaxel sample made by the method of present invention and standard paclitaxel sample on the killing percentage against […] cells by minimal MTT method by the use of culture medium RPMI-1640 containing 2% calf serum.
In vitro bioactivity analysis of the fermented paclitaxel show high efficacy on killing breast cancer cells.

CC(=O)O[C@H]1C(=O)[C@@]2(C)[C@H]([C@H](OC(=O)c3ccccc3)[C@]3(O)C[C@H](OC(=O)[C@H](O)[C@@H](NC(=O)c4ccccc4)c4ccccc4)C(C)=C1C3(C)C)[C@]1(OC(C)=O)CO[C@@H]1C[C@@H]2O [fermented paclitaxel, 5β, 20-epoxy-1,2α,4,7β 10β 13α-hexahydroxy-tax-11-en-9-one-4,10-diacetate-2-benzoate-13-ester with (2R, 3S)-N-benzoyl-3-phenyl isoserine]
efficacy on killing breast cancer cells (killing percentage, FIG. 10): high efficacy
efficacy on killing breast cancer cells (killing percentage, FIG. 10) (listed as paclitaxel from Examples 20-24): same effects as paclitaxel standard samples
